# Patent US11434221B2, “Pyrazine-4-carbamate or -urea derivatives as herbicides” (Syngenta Participations AG, priority 2017, dated 2022)
# How the values were obtained:
# Format in all cases: in vivo
# Set-up in all cases: key: 5=total damage to plant; 0=no damage to plant
# [1] = test system: Echinochloa crus-galli (ECHCG); assay: Post-emergence herbicidal activity, glasshouse pot test; conditions: Rate 1000 g/ha; sprayed after 8 days cultivation; evaluated after 13 days
# Experimental: (§1) Seeds of a variety of test species were sown in standard soil in pots: Triticum aestivium (TRZAW), Avena fatua (AVEFA), Alopecurus myosuroides (ALOMY), Echinochloa crus-galli (ECHCG), Lolium perenne (LOLPE), and Setaria faberi (SETFA). After 8 days cultivation (post-emergence) under controlled conditions in a glasshouse (at 24/16° C., day/night; 14 hours light; 65% humidity), the plants were sprayed with an aqueous spray solution derived from the formulation of the technical active ingredient in acetone/water (50:50) solution containing 0.5% Tween 20 (polyoxyethelyene sorbitan monolaurate, CAS RN 9005-64-5). The test plants were then grown in a glasshouse under controlled conditions (at 24/16° C., day/night; 14 hours light; 65% humidity) and watered twice daily. After 13 days, the test was evaluated (5=total damage to plant; 0=no damage to plant).
# Setaria faberi (SETFA) [2] = assay: as above; conditions: Rate 1000 g/ha; sprayed after 8 days cultivation; evaluated after 13 days
# Experimental: as §1
# [3] = test system: Alopecurus myosuroides (ALOMY); assay: as above; conditions: Rate 1000 g/ha; sprayed after 8 days cultivation; evaluated after 13 days
# Experimental: as §1
# Avena fatua (AVEFA) [4] = assay: as above; conditions: Rate 1000 g/ha; sprayed after 8 days cultivation; evaluated after 13 days
# Experimental: as §1
# Lolium perenne (LOLPE) [5] = assay: as above; conditions: Rate 1000 g/ha; sprayed after 8 days cultivation; evaluated after 13 days
# Experimental: as §1
# [6] = test system: Triticum aestivium (TRZAW); assay: as above; conditions: Rate 1000 g/ha; sprayed after 8 days cultivation; evaluated after 13 days
# Experimental: as §1
# [7] = test system: Echinochloa crus-galli (ECHCG); assay: Pre-emergence herbicidal activity, glasshouse pot test; conditions: Rate 1000 g/ha; sprayed one day after sowing; evaluated after 13 days
# Experimental: as §1, with “After” for “After 8 days”, “for one day (pre-emergence)” for “(post-emergence)”
# Setaria faberi (SETFA) [8] = assay: as above; conditions: Rate 1000 g/ha; sprayed one day after sowing; evaluated after 13 days
# Experimental: as §1, with “After” for “After 8 days”, “for one day (pre-emergence)” for “(post-emergence)”
# [9] = test system: Alopecurus myosuroides (ALOMY); assay: as above; conditions: Rate 1000 g/ha; sprayed one day after sowing; evaluated after 13 days
# Experimental: as §1, with “After” for “After 8 days”, “for one day (pre-emergence)” for “(post-emergence)”
# Avena fatua (AVEFA) [10] = assay: as above; conditions: Rate 1000 g/ha; sprayed one day after sowing; evaluated after 13 days
# Experimental: as §1, with “After” for “After 8 days”, “for one day (pre-emergence)” for “(post-emergence)”
# Lolium perenne (LOLPE) [11] = assay: as above; conditions: Rate 1000 g/ha; sprayed one day after sowing; evaluated after 13 days
# Experimental: as §1, with “After” for “After 8 days”, “for one day (pre-emergence)” for “(post-emergence)”
# [12] = test system: Triticum aestivium (TRZAW); assay: as above; conditions: Rate 1000 g/ha; sprayed one day after sowing; evaluated after 13 days
# Experimental: as §1, with “After” for “After 8 days”, “for one day (pre-emergence)” for “(post-emergence)”
Structure (SMILES),"Control of weed species after post-emergence application, ECHCG (damage score 0-5) [1]","Control of weed species after post-emergence application, SETFA (damage score 0-5) (Setaria faberi (SETFA) [2])","Control of weed species after post-emergence application, ALOMY (damage score 0-5) [3]","Control of weed species after post-emergence application, AVEFA (damage score 0-5) (Avena fatua (AVEFA) [4])","Control of weed species after post-emergence application, LOLPE (damage score 0-5) (Lolium perenne (LOLPE) [5])","Control of weed species after post-emergence application, TRAZW (damage score 0-5) [6]","Control of weed species after pre-emergence application, ECHCG (damage score 0-5) [7]","Control of weed species after pre-emergence application, SETFA (damage score 0-5) (Setaria faberi (SETFA) [8])","Control of weed species after pre-emergence application, ALOMY (damage score 0-5) [9]","Control of weed species after pre-emergence application, AVEFA (damage score 0-5) (Avena fatua (AVEFA) [10])","Control of weed species after pre-emergence application, LOLPE (damage score 0-5) (Lolium perenne (LOLPE) [11])","Control of weed species after pre-emergence application, TRAZW (damage score 0-5) [12]"
C=Cc1nc(-c2cncc(F)c2)cnc1N(C(=O)OC(C)(C)C)C(=O)OC(C)(C)C [Compound H20],4,5,0,2,3,1,2,4,0,2,1,1
CCc1nc(-c2cncc(F)c2)cnc1N(C(=O)OC(C)(C)C)C(=O)OC(C)(C)C [Compound H21],4,5,1,4,4,1,1,5,0,2,5,0
CC(C)(C)OC(=O)Nc1ncc(-c2cncc(F)c2)nc1CO [Compound H22],1,2,0,1,1,0,0,0,0,0,0,0
Cc1nc(-c2cncnc2)cnc1NC(=O)OC(C)(C)C [Compound H23],4,5,1,3,2,1,2,4,0,1,0,0
